Several values for one entry are separate records, joined by “and”; a condition that tells them apart may be missing. Equal values may be shown once. Entries after “also recorded” stand apart in the source; their conditions may differ. Read-outs that look alike come from different tables or passages of the source.
Key:
[1] = set-up: method as in PMID 23962079; conditions: after intravenous injection; cited from earlier work
hGlyT2 = molecular target: T1, hGlyT2 (Homo sapiens, UniProt Q9Y345); experiment: GlyT2 MS Binding Assays: competition experiments with Org25543 as reporter ligand
T1 construct: host or cells: HEK293 cells stably expressing hGlyT2; crude membrane fractions
T1 sequence (Q9Y345 1-797): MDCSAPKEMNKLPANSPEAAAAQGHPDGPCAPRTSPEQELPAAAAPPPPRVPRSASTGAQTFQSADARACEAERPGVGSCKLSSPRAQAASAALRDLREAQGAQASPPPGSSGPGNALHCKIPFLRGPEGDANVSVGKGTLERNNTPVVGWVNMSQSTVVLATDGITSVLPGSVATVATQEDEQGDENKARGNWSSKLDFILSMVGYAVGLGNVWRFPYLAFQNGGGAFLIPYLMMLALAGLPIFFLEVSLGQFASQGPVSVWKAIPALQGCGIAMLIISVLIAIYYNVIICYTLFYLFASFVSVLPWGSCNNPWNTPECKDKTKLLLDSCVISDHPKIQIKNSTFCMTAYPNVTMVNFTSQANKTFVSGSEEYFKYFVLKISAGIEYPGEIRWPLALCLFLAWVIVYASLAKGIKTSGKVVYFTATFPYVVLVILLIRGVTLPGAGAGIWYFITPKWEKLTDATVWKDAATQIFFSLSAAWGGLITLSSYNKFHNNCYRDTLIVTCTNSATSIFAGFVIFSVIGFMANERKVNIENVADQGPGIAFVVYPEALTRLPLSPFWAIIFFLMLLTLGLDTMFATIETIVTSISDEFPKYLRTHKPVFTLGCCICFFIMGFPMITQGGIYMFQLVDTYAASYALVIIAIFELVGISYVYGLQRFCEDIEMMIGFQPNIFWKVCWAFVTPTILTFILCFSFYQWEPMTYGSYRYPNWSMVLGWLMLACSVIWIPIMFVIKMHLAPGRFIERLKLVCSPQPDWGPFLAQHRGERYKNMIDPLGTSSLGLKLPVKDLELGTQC
Protocol: For the development of the desired competitive MS Binding Assay, the general concept of this kind of binding experiments was followed, in which the affinity of a test compound is delineated from its potency to compete out a reporter ligand, in our case Org25543, from its target binding site. Accordingly, the target protein was incubated with a defined concentration of the reporter ligand and increasing concentration of the individual test compound. In detail, the competitors were studied at seven different concentration levels, which covered about three concentration log units, whereas the concentration of Org25543 was fixed to 10 nM. Thereafter, via the developed LC‐ESI‐MS/MS method the amount of bound marker (total binding) was determined for the samples obtained from the individual incubation mixtures by the common workup for MS Binding Assays. Nonspecific binding was again determined in a set of analogous experiments in which GlyT2 membrane fractions were replaced by material subjected to a heat‐shock before. The resulting amount of Org25543 binding was defined as 0 % level of specific reporter ligand binding. […] The thus determined IC50 values were finally used to calculate the corresponding K i values by means of the Cheng‐Prusoff equation.
For preparation of GlyT2 membrane preparations HEK293 cells, stably expressing the hGlyT2 with a confluence ≥90 %, were used (kindly provided by AbbVie (Wiesbaden, Germany)). As cell culture medium DMEM containing 10 % fetal bovine serum (m/v), 100 U mL^−1 penicillin, 100 μg mL^−1 streptomycin and […] hygromycin B was used and the cells were cultivated in dishes (143 cm^2) at 37 °C and 8 % CO2. The cells were detached from the dish by aspirating the medium, adding 12 mL cell culture medium without hygromycin B and pipetting the medium several times until the cell lawn was completely detached. Subsequently, the cells were washed twice with PBS (5 min, 1600 rpm, Biofuge Stratos, rotor: #3047, Heraeus, Hanau, Germany) and afterwards homogenized in incubation buffer (10 mM HEPES, 120 mM NaCl, 2 mM KCl, 1 mM MgCl2, 1 mM CaCl2, pH 7.5) using a Polytron PTA 10 S (Kinematica Polytron, Littau‐Luzern, Switzerland). After homogenization aliquots of about 1 mg protein were frozen and stored at −80 °C. To determine the amount of protein in the membrane preparation (after treatment with 100 mM NaOH for 1 h) the protein determination according to Bradford ^[63] was applied, using bovine serum albumin as standard for calibration. At the day of the assay the membrane preparation was rapidly thawed, diluted in 20 mL incubation buffer and centrifuged at 4 °C for 20 min at 20 500 rpm (Sorvall Evolution RC, rotor: SS34, Thermo. Electron, Hanau, Germany). Finally, the resulting pellet was resuspended in 6 mL incubation buffer yielding a protein concentration of ∼0.1–0.2 mg mL^−1.
In polypropylene 96‐well plates (1.2 mL well volume, Sarstedt) membrane preparations (∼5–10 μg protein) were incubated in the presence of the reporter ligand and, if required, test compounds in incubation buffer (10 mM HEPES, 120 mM NaCl, 2 mM KCl, 1 mM MgCl2, 1 mM CaCl2, pH 7.5) in a total volume of 250 μL at 37 °C in a Julabo SW‐20 C water bath (Julabo GmbH, Seelbach, Germany) for 1 h (every sample was prepared in triplicates). After the incubation 210 μL aliquots of the binding samples were transferred by means of a 12‐channel pipette onto 96‐well glass fiber filter plates (AcroPrep Advance, glass fiber, 1.0 μm, 350 μL; Pall Corporation, Port Washington, NY, USA) where the incubation was terminated by vacuum filtration (the samples were transferred and the incubation was terminated row after row; Multi Well Plate Vacuum Manifold, Pall, Dreieich, Germany).

GlyT2 [2] = conditions: cited from earlier work; for IC50: read-out: Biological activity, IC50 (literature); for pIC50 (literature; calcd): calcd from literature IC50
GlyT2 [3] = molecular target: T2, GlyT2 (Homo sapiens, UniProt Q9Y345); experiment: influence of DMA on binding of Org25543 towards GlyT2 in competition experiments; conditions: DMA as competitor, up to a concentration of 2 % (215 mM)
T2 construct: host or cells: HEK293 cells stably expressing hGlyT2; crude membrane fractions
T2 sequence (Q9Y345 1-797): T1 sequence (Q9Y345 1-797)
Protocol: Investigating adsorption of Org25543 to polypropylene container material To investigate the adsorption ability of Org25543 to polypropylene container material dilution series of Org25543 were prepared in reaction tubes (1.5 mL, PP, Sarstedt, Nümbrecht, Germany) using different solvents or solvent mixtures, respectively (H2O, acetonitrile, H2O/DMSO (80:20, v/v), H2O/N,N-dimethylacetamide (DMA; 80:20, 90:10 and 95:5 v/v)). At least five concentration levels (10-fold concentration; 10 nM – 625 pM) were prepared in each solvent and these concentration levels were diluted again 1:10 (final concentrations of Org25543: 1 nM – 62.5 pM) in a mixture of ammonium bicarbonate buffer (5 mM, pH7.8) and acetonitrile containing 111 pM [2H7]Org25543 (final concentration: 100 pM) that the final sample solvent equals the mobile phase.
Then the samples were subjected to LC-ESI-MS/MS quantification and the obtained peak area ratios of Org25543 and [ 2H7]Org25543 were plotted against the concentration of Org25543. By using linear regression analysis calibration curves were obtained for all dilution series and were compared to each other. The calibration curves are depicted in Figure S 4.
Investigating the influence of N,N-dimethylacetamide (DMA) on the binding of Org25543 towards GlyT2 in competition experiments […]

[4] = cited from earlier work
GlyT2 [5] = conditions: cited from earlier work
[6] = read-out: Affinity, pKi (GlyT2 MS Binding Assays) (converted)

For `N[C@@H](COC(c1cccc(F)c1)c1ccccc1OCc1ccccc1)C(=O)O` (stereo partly shown) [ALX1393, O‐[(2‐benzyloxyphenyl‐3‐flurophenyl)methyl]‐L‐serine], which “fraction crossing the blood‐brain‐barrier” value [1] is on record?
The value was 5%.

And the Ki (hGlyT2; [6])?
The Ki was 1170 nM.

And the IC50 (GlyT2 [2]; ref 11, 40)?
Its IC50 is 26 to 100 nM.

With `CC(=O)N(C)C` [DMA, N,N‐dimethylacetamide] as the molecule, how does the “influence on Org25543 binding at GlyT2, in words” value (GlyT2 [3]) read?
The value was “no influence on the Org25543 binding at GlyT2; also recorded: not effect Org25543 binding”.

Which Ki (hGlyT2) does the source give for `CCCCC/C=C\C/C=C\C/C=C\C/C=C\CCCC(=O)NCC(=O)O` [N‐arachidonylglycine, N‐(1‐oxo‐(5Z,8Z,11Z,14Z)‐eicosatetraenyl)glycine] here?
The Ki was 3980 nM.

What about the “pIC50 (literature; calcd)” value (GlyT2 [2]; ref 52) of the same molecule?
Its value is 5.29.

And the IC50 (GlyT2 [2]; ref 52)?
Its IC50 is 5100 ± 3100 nM.

And the “critical micelle concentration (CMC)” value ([4]; ref 61)?
Its value is over 100 µM.

For `O=C(O)CCCCSc1ncnc2[nH]c(O)nc12` [ZINC6865169, 5‐((8‐hydroxy‐9H‐purin‐6‐yl)thio)pentanoic acid], which IC50 (hGlyT2) is on record?
The IC50 was over 600000 nM.

And the “remaining Org25543 binding (% of specific binding) at the highest compound concentration” value (hGlyT2; compound 600 μM, Org25543 10 nM)?
The value was 77% and 77±6%.

And the Ki (hGlyT2; [6])?
The Ki was over 257000 nM.

What about the IC50 (GlyT2 [5]; ref 40, read-out: IC50 in glycine uptake studies) of the same molecule?
Its IC50 is 518 nM.

What about the “pIC50 (literature; calcd)” value (GlyT2 [2]; ref 40) of the same molecule?
The value was 6.29.

And the IC50 (GlyT2 [2]; ref 40)?
The IC50 was 518 ± 66 nM.

Which results are given for `COc1cc(C(=O)NCC2(N(C)C)CCCCC2)cc(OC)c1OCc1ccccc1` [compound 8]?
Ki (hGlyT2; [6]): 41.7 nM; IC50 (GlyT2 [5]; ref 23, read-out: IC50 in [3H]glycine uptake assay): 84 nM; pIC50 (literature; calcd) (GlyT2 [2]; ref 23): 7.08; IC50 (GlyT2 [2]; ref 23): 84 ± 3 nM

Which Ki (hGlyT2; [6]) does the source give for `CCCCCCCC/C=C\CCCCCCCC(=O)O[C@H](CC(=O)[O-])C[N+](C)(C)C` [oleoyl‐L‐carnitine, Oleoyl‐L‐carnitine] here?
The Ki was 2630 nM.

What about the “pIC50 (literature; calcd)” value (GlyT2 [2]; ref 18) of the same molecule?
The value was 6.47.

What about the IC50 (GlyT2 [2]; ref 18) of the same molecule?
Its IC50 is 340 nM.

What about the “critical micelle concentration (CMC)” value ([4]; ref 18) of the same molecule?
Its value is 7.4 µM.

Source: article PMC7821181, “MS Binding Assays for Glycine Transporter 2 (GlyT2) Employing Org25543 as Reporter Ligand” (Chemmedchem, 2020)
